What was measured:
[1] = system: HCV replicon RNA (GenBank Accession No. AJ242654); assay: HCV Replicon Assay (replicon RNA reduction and/or Fluc reporter signal); assay type: cell-based, Hepatitis C virus; conditions: Hepatitis C virus, 72 h, replicon-containing cells cultured with test compound for up to 3 days
Method in brief: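 Bicistronic replicon-containing cells cultured with compound for up to 3 days, with interferon as positive control. Inhibition quantified by replicon RNA reduction and/or Fluc reporter signal; IC50 values generally derived from replicon RNA reduction.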

SMILES | IC50 [1] | melting point
C[C@@H](NS(=O)(=O)c1ccc(-c2c(C#N)c3cc(C(F)(F)F)cnc3n2C2CCC2)nc1)C(F)(F)F [Cpd 228, 6-[3-cyano-1-cyclobutyl-5-(trifluoromethyl)-1H-pyrrolo[2,3-b]pyridin-2-yl]-N-[(2R)-1,1,1-trifluoropropan-2-yl]pyridine-3-sulfonamide] | < 500 nM | 190 to 192 °C
C[C@H](NS(=O)(=O)c1ccc(-c2c(C#N)c3cc(C(F)(F)F)cnc3n2C2CCCC2)nc1)C(F)(F)F [Cpd 229, 6-[3-cyano-1-cyclopentyl-5-(trifluoromethyl)-1H-pyrrolo[2,3-b]pyridin-2-yl]-N-[(2S)-1,1,1-trifluoropropan-2-yl]pyridine-3-sulfonamide] | < 500 nM | 205 to 207 °C
C[C@@H](NS(=O)(=O)c1ccc(-c2c(C#N)c3cc(C(F)(F)F)cnc3n2C2CCCC2)nc1)C(F)(F)F [Cpd 230, 6-[3-cyano-1-cyclopentyl-5-(trifluoromethyl)-1H-pyrrolo[2,3-b]pyridin-2-yl]-N-[(2R)-1,1,1-trifluoropropan-2-yl]pyridine-3-sulfonamide] | < 500 nM | 208 to 210 °C
CC[C@H](NS(=O)(=O)c1ccc(-c2c(C#N)c3cc(OC)cnc3n2C2CCC2)nc1)C(F)(F)F [Cpd 232, 6-(3-cyano-1-cyclobutyl-5-methoxy-1H-pyrrolo[2,3-b]pyridin-2-yl)-N-[(2S)-1,1,1-trifluorobutan-2-yl]pyridine-3-sulfonamide] | < 500 nM | 186 to 191 °C
CC[C@H](NS(=O)(=O)c1ccc(-c2c(C#N)c3cc(Cl)cnc3n2C2CCCC2)nc1)C(F)(F)F [Cpd 233, 6-(5-chloro-3-cyano-1-cyclopentyl-1H-pyrrolo[2,3-b]pyridin-2-yl)-N-[(2S)-1,1,1-trifluorobutan-2-yl]pyridine-3-sulfonamide] | < 500 nM | 180 to 185 °C
C[C@H](NS(=O)(=O)c1ccc(-c2c(C#N)c3ncc(Cl)cc3n2C2CCC2)nc1)C(F)(F)F [Cpd 234, 6-(6-chloro-3-cyano-1-cyclobutyl-1H-pyrrolo[3,2-b]pyridin-2-yl)-N-[(2S)-1,1,1-trifluoropropan-2-yl]pyridine-3-sulfonamide] | < 500 nM | 201 to 205 °C
C[C@H](NS(=O)(=O)c1ccc(-c2c(C#N)c3ncc(Cl)cc3n2C2CCC2)cc1)C(F)(F)F [Cpd 235, 4-(6-chloro-3-cyano-1-cyclobutyl-1H-pyrrolo[3,2-b]pyridin-2-yl)-N-[(2S)-1,1,1-trifluoropropan-2-yl]benzenesulfonamide] | 500 to 2000 nM | 205 to 210 °C
COc1cnc2c(c1)c(C#N)c(-c1ccc(S(=O)(=O)N[C@@H](C)C(F)(F)F)c[n+]1[O-])n2C1CCC1 [Cpd 236, 6-(3-cyano-1-cyclobutyl-5-methoxy-1H-pyrrolo[2,3-b]pyridin-2-yl)-N-[(2S)-1,1,1-trifluoropropan-2-yl]pyridine-3-sulfonamide 1-oxide] | 2000 to 5000 nM | 155 to 157 °C
C[C@H](NS(=O)(=O)c1ccc(-c2c(C#N)c3cc(-c4cccs4)cnc3n2C2CCC2)nc1)C(F)(F)F [Cpd 237, 6-[3-cyano-1-cyclobutyl-5-(thiophen-2-yl)-1H-pyrrolo[2,3-b]pyridin-2-yl]-N-[(2S)-1,1,1-trifluoropropan-2-yl]pyridine-3-sulfonamide] | 2000 to 5000 nM | 206 to 208 °C
C[C@@H](NS(=O)(=O)c1ccc(-c2c(C#N)c3cc(-c4cccs4)cnc3n2C2CCC2)nc1)C(F)(F)F [Cpd 238, 6-[3-cyano-1-cyclobutyl-5-(thiophen-2-yl)-1H-pyrrolo[2,3-b]pyridin-2-yl]-N-[(2R)-1,1,1-trifluoropropan-2-yl]pyridine-3-sulfonamide] | 2000 to 5000 nM | 198 to 199 °C
C[C@H](NS(=O)(=O)c1ccc(-c2c(C#N)c3cc(N4CCCC4)cnc3n2C2CCC2)nc1)C(F)(F)F [Cpd 239, 6-[3-cyano-1-cyclobutyl-5-(pyrrolidin-1-yl)-1H-pyrrolo[2,3-b]pyridin-2-yl]-N-[(2S)-1,1,1-trifluoropropan-2-yl]pyridine-3-sulfonamide] | 500 to 2000 nM | 207 to 209 °C
C[C@@H](NS(=O)(=O)c1ccc(-c2c(C#N)c3cc(N4CCCC4)cnc3n2C2CCC2)nc1)C(F)(F)F [Cpd 240, 6-[3-cyano-1-cyclobutyl-5-(pyrrolidin-1-yl)-1H-pyrrolo[2,3-b]pyridin-2-yl]-N-[(2R)-1,1,1-trifluoropropan-2-yl]pyridine-3-sulfonamide] | 500 to 2000 nM | 207 to 209 °C
COc1cc2c(C#N)c(-c3ccc(S(=O)(=O)N[C@@H](C)C(F)(F)F)cn3)n(C3CCC3)c2nc1C [Cpd 242, 6-(3-cyano-1-cyclobutyl-5-methoxy-6-methyl-1H-pyrrolo[2,3-b]pyridin-2-yl)-N-[(2S)-1,1,1-trifluoropropan-2-yl]pyridine-3-sulfonamide] | < 500 nM | 175 to 177 °C
COc1cc2c(C#N)c(-c3ccc(S(=O)(=O)N[C@H](C)C(F)(F)F)cn3)n(C3CCC3)c2nc1C [Cpd 243, 6-(3-cyano-1-cyclobutyl-5-methoxy-6-methyl-1H-pyrrolo[2,3-b]pyridin-2-yl)-N-[(2R)-1,1,1-trifluoropropan-2-yl]pyridine-3-sulfonamide] | 2000 to 5000 nM | 175 to 177 °C
CC(C)NS(=O)(=O)c1ccc(-c2c(C#N)c3cc(C(F)(F)F)cnc3n2C2CCC2)nc1 [Cpd 244, 6-[3-cyano-1-cyclobutyl-5-(trifluoromethyl)-1H-pyrrolo[2,3-b]pyridin-2-yl]-N-(propan-2-yl)pyridine-3-sulfonamide] | < 500 nM | 186 to 187 °C
CCCS(=O)(=O)Nc1ccc(-c2c(C#N)c3cc(C(F)(F)F)cnc3n2C2CCC2)cc1 [Cpd 247, N-{4-[3-cyano-1-cyclobutyl-5-(trifluoromethyl)-1H-pyrrolo[2,3-b]pyridin-2-yl]phenyl}propane-1-sulfonamide] | 500 to 2000 nM | 180 to 181 °C
COc1cnc2c(c1)c(C#N)c(-c1ccc(S(=O)(=O)N[C@@H](C)C(F)(F)F)cn1)n2C1CCCC1 [Cpd 248, 6-(3-cyano-1-cyclopentyl-5-methoxy-1H-pyrrolo[2,3-b]pyridin-2-yl)-N-[(2S)-1,1,1-trifluoropropan-2-yl]pyridine-3-sulfonamide] | < 500 nM | 178 to 180 °C
C[C@@H](NS(=O)(=O)c1ccc(-c2c(C#N)c3cc(C4CC4)cnc3n2C2CCCC2)nc1)C(F)(F)F [Cpd 249, 6-(3-cyano-1-cyclopentyl-5-cyclopropyl-1H-pyrrolo[2,3-b]pyridin-2-yl)-N-[(2R)-1,1,1-trifluoropropan-2-yl]pyridine-3-sulfonamide] | 500 to 2000 nM | 155 to 164 °C
C[C@H](NS(=O)(=O)c1ccc(-c2c(C#N)c3cc(C4CC4)cnc3n2C2CCCC2)nc1)C(F)(F)F [Cpd 250, 6-(3-cyano-1-cyclopentyl-5-cyclopropyl-1H-pyrrolo[2,3-b]pyridin-2-yl)-N-[(2S)-1,1,1-trifluoropropan-2-yl]pyridine-3-sulfonamide] | < 500 nM | 157 to 167 °C
Cc1cnc2c(c1)c(C#N)c(-c1ccc(S(=O)(=O)N[C@H](C)C(F)(F)F)cn1)n2C1CCCC1 [Cpd 254, 6-(3-cyano-1-cyclopentyl-5-methyl-1H-pyrrolo[2,3-b]pyridin-2-yl)-N-[(2R)-1,1,1-trifluoropropan-2-yl]pyridine-3-sulfonamide] | < 500 nM | 155 to 162 °C
Cc1cnc2c(c1)c(C#N)c(-c1ccc(S(=O)(=O)NC3(C)CC3)cn1)n2C1CCCC1 [Cpd 256, 6-(3-cyano-1-cyclopentyl-5-methyl-1H-pyrrolo[2,3-b]pyridin-2-yl)-N-(1-methylcyclopropyl)pyridine-3-sulfonamide] | 500 to 2000 nM | 143 to 153 °C
COc1cnc2c(c1)c(C#N)c(-c1ccc(S(=O)(=O)N(C(C)=O)[C@@H](C)C(F)(F)F)cn1)n2C1CCCC1 [Cpd 257, N-{[6-(3-cyano-1-cyclopentyl-5-methoxy-1H-pyrrolo[2,3-b]pyridin-2-yl)pyridin-3-yl]sulfonyl}-N-[(2S)-1,1,1-trifluoropropan-2-yl]acetamide] | < 500 nM | 169 to 173 °C
CCc1nc2c(cc1OC)c(C#N)c(-c1ccc(S(=O)(=O)N[C@@H](C)C(F)(F)F)cn1)n2C1CCC1 [Cpd 258, 6-(3-cyano-1-cyclobutyl-6-ethyl-5-methoxy-1H-pyrrolo[2,3-b]pyridin-2-yl)-N-[(2S)-1,1,1-trifluoropropan-2-yl]pyridine-3-sulfonamide] | < 500 nM | 186 to 189 °C
CCc1nc2c(cc1OC)c(C#N)c(-c1ccc(S(=O)(=O)N[C@H](C)C(F)(F)F)cn1)n2C1CCC1 [Cpd 259, 6-(3-cyano-1-cyclobutyl-6-ethyl-5-methoxy-1H-pyrrolo[2,3-b]pyridin-2-yl)-N-[(2R)-1,1,1-trifluoropropan-2-yl]pyridine-3-sulfonamide] | 2000 to 5000 nM | 189 to 199 °C
CCC(NS(=O)(=O)c1ccc(-c2c(C#N)c3cc(Cl)cnc3n2C2CCCC2)nc1)C(F)(F)F (stereo not drawn) [Cpd 260, 6-(5-chloro-3-cyano-1-cyclopentyl-1H-pyrrolo[2,3-b]pyridin-2-yl)-N-(1,1,1-trifluorobutan-2-yl)pyridine-3-sulfonamide] | < 500 nM | 170 to 174 °C
CCC(NS(=O)(=O)c1ccc(-c2c(C#N)c3cc(OC)cnc3n2C2CCC2)nc1)C(F)(F)F (stereo not drawn) [Cpd 261, 6-(3-cyano-1-cyclobutyl-5-methoxy-1H-pyrrolo[2,3-b]pyridin-2-yl)-N-(1,1,1-trifluorobutan-2-yl)pyridine-3-sulfonamide] | < 500 nM | 185 to 190 °C
Cc1cnc2c(c1)c(C#N)c(-c1ccc(S(=O)(=O)N[C@H](C)C(F)(F)F)cc1)n2C1CCCC1 [Cpd 262, 4-(3-cyano-1-cyclopentyl-5-methyl-1H-pyrrolo[2,3-b]pyridin-2-yl)-N-[(2R)-1,1,1-trifluoropropan-2-yl]benzenesulfonamide] | < 500 nM | 189 to 195 °C
